According to US8383612B2, “Use of megestrol acetate for improving heart function and the treatment of heart insufficiency” (Par Pharmaceuticals, Inc., priority 2004, dated 2013):
Entries after “also recorded” stand apart in the source; their conditions may differ.

Columns and labels:
[1] = tested on: infarction-surgery rats (ligation of the left coronary artery, heart insufficiency); test: Echocardiography, furosemide-study; format: in vivo, Wistar rat
Method: (§1) Groups A, B and C of the infarction animals received furosemide (Lasix® 250 mg ampoule, Aventis Pharma GmbH, Frankfurt am Main, Germany) starting from day 18 (±2 days) for the whole study in a concentration of 8.6 mg/100 ml in drinking water. This corresponds to an initial dosage of 10 mg/kg/d at a weight of 300 g and an amount of drinking water of 35 ml/d.
Between week 28 and 30 post surgery (corresponds to week 22 to 24 in the megestrol acetate-Study or week 25 to 27 in the diuretic study), the heart function of all rats still alive was examined by echocardiography. For this, each rat was first pre-anaesthetised using isoflurane (Curamed Pharma GmbH Karlsruhe, Germany) in a chamber of the anaesthetic unit Univentor 400 Anaesthesia Unit (Agn Tho's, Lidingö, Sweden) pre-anaesthetised and subsequently maintained by using a mask. For the echocardiography examination the thorax region was shaved and the rat was fixed in a position lying on the back. The echocardiography was performed with an Acuson-Sequoia C256 (Siemens, Germany) which was equipped with a 15 MHz sonication head suitable for rat- and mouse echocardiography. The left ventricle (LV) was adjusted in the parastemal long and short axis. […] The diastolic function was evaluated based on the LV-influx profile via the mitral valve (E/A-ratio) by means of a PW-Doppler. The measurement volume of the PW-doppler was placed at the tip of the opened mitral valve flap. The measurements were performed by an independent blinded researcher. In FIG. 1 the progression of weight for all groups is depicted.
(§2) The infarction-furosemide-group corresponds to the blinded infarction-placebo-group of the megestrol acetate-Study (here: infarction-furosemide-group). An additional infarction-surgery group received simple drinking water without furosemide and served as control group for the furosemide-study (here: infarction-placebo-group). In order to expose all animals to equal conditions, in this group the furosemide-study was gavaged unblinded with placebo. A further group is the sham-placebo-group, that corresponds to the blinded sham-placebo-group of the megestrol acetate-study (here: sham-placebo-group).

[2] = Progression of weight, furosemide-study; format: in vivo, Wistar rat
Method: During the progression of both studies, the animals were weight-determined twice a week, starting from the date of surgery (laboratory balance model CS2000. Ohaus Corporation, Pine Brook, N.J., USA). The results were calculated corresponding to the post-surgical day of the respective animal.
as §1
Animals from the infarction-placebo group (without furosemide) and all sham-animals received drinking water without supplementation.
as §2
Like in the megestrol acetate-study, the weight values corresponding to the day post-surgery of the respective animal were compared, but this time the data was analysed as a change of weight starting from the beginning of therapy of the furosemide-study (18th day post-surgery=day 0 of the furosemide-study). This therefore results in a 26 days longer period of observation for the diuretic-study in comparison with the megestrol acetate-study. Furosemide was given until the end of the observation period and to removal of organs, respectively.

[3] = infarction-furosemide-group, furosemide via drinking water, placebo in the gavage

NS(=O)(=O)c1cc(C(=O)O)c(NCc2ccco2)cc1Cl [furosemide]
effect on the echocardiographically determined heart function ([1]; infarction groups with vs. without furosemide): no differences; also recorded: no direct effect | A [1, 3]: 0.62 ± 0.05 m/s | E [1, 3]: 0.84 ± 0.03 m/s | E:A [1, 3]: 1.61 ± 0.21 | FS [1, 3]: 15.1 ± 1.0 % | IVS d [1, 3]: 0.13 ± 0.03 cm | LVEDD [1, 3]: 1.06 ± 0.02 cm | LVEF [1, 3]: 35.5 ± 2.0 % | LVESD [1, 3]: 0.90 ± 0.02 cm | LVHW d [1, 3]: 0.17 ± 0.01 cm | increase of weight over the whole period of time ([2]; infarction-furosemide-group): 1.4 g/day | weight at the end of the observation period ([2]; infarction-furosemide-group): 583 ± 12 g | weight gained at the end of the observation period ([2]; infarction-furosemide-group): 81% | mean weight at the beginning of the diuretic-study ([2]; infarction-furosemide-group, day 18 following surgery): 322 ± 3 g | progress of weight in comparison with the placebo-group with infarction ([2]; starting from day 105 after beginning of therapy, significant): less pronounced progress
